Test results: PubChem BioAssay (NCI)
“And” between values parts separate entries of the source, which are not always exact repeats. Equal entries are not always repeated.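 Compound exposure: 48 hours, 5 concentrations, 96-well plates. GI50 is the concentration that inhibits growth by half. TGI is the concentration that stops growth completely.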

Assays:
Test in all cases: NCI tumour cell line growth inhibition, 48 h
HCC-2998 colon = system: HCC-2998 colon
PC-3 prostate = system: PC-3 prostate
K-562 leukemia = system: K-562 leukemia
OVCAR-3 ovarian = system: OVCAR-3 ovarian
NCI-H226 lung = system: NCI-H226 lung
SK-MEL-28 melanoma = system: SK-MEL-28 melanoma
OVCAR-8 ovarian = system: OVCAR-8 ovarian
NCI/ADR-RES ovarian = system: NCI/ADR-RES ovarian
ACHN renal = system: ACHN renal
OVCAR-5 ovarian = system: OVCAR-5 ovarian

Row | Compound | GI50 (HCC-2998 colon) | TGI (HCC-2998 colon) | GI50 (PC-3 prostate) | TGI (PC-3 prostate) [µM] | GI50 (K-562 leukemia) | TGI (K-562 leukemia) [µM] | GI50 (OVCAR-3 ovarian) | TGI (OVCAR-3 ovarian) [µM] | GI50 (NCI-H226 lung) | TGI (NCI-H226 lung) | GI50 (SK-MEL-28 melanoma) | TGI (SK-MEL-28 melanoma) | GI50 (OVCAR-8 ovarian) | TGI (OVCAR-8 ovarian) [µM] | GI50 (NCI/ADR-RES ovarian) [µM] | TGI (NCI/ADR-RES ovarian) [µM] | GI50 (ACHN renal) | TGI (ACHN renal) [µM] | GI50 (OVCAR-5 ovarian) | TGI (OVCAR-5 ovarian)
1 | O=C(Cc1ccc(/C=C/C(=O)c2ncc[nH]2)cc1)Nc1ccc(F)cc1 | 5.43 µM | 10.9 µM | 2.8 µM | 11.9 | 1.3 µM | > 33.3 | 1.7 µM | 6.01 | 9.85 µM | > 33.3 µM | 6.26 µM | 16.6 µM | 5.08 µM | > 33.3 | 7.18 | > 33.3 | 4.82 µM | 9.62 | 2.6 µM | 9.81 µM
2 | O=c1c2c(=NCCN3CCCC3)cc3c(=O)n(CCCN4CCOCC4)c(=O)c4c(-c5ccc(CN6CCCC6)cc5)cc(c(O)n1CCCN1CCOCC1)c2c4-3 | 0.0556 µM | 0.284 µM | 0.0278 µM | 0.168 | 0.0195 µM | > 100 | 0.0244 µM | 0.109 | 0.0523 µM | 0.49 µM | 0.156 µM | 0.557 µM | < 0.0255 µM | 2.24 | 0.364 | 9.65 | 0.0257 µM | 0.783 | 0.0847 µM | 0.724 µM
3 | Fc1cccc(COc2ccc(Nc3ncnc4sc(-c5cccs5)cc34)cc2Cl)c1 | 5.25 µM | > 18.4 µM | > 10.7 µM | > 20.4 | > 25 µM | > 25 | 0.77 µM | 6.24 | 4.58 µM | 15.2 µM | 6.58 µM | > 22.8 µM | 5.5 µM | > 17.4 | 4.74 | > 17.3 | 3.24 µM | 7.24 | 6.89 µM | > 25 µM
4 | CCN1C/C(=C\c2cc(OC)c(OC)cc2OC)C(=O)/C(=C/c2cc(OC)c(OC)cc2OC)C1 | 1.74 µM | 3.33 µM | 4.25 µM | > 100 | 3.58 µM | > 100 | 2.29 µM | 5.17 | 2.59 µM | 5.59 µM | 2.48 µM | 5.6 µM | 3.43 µM | > 100 | 3.12 | > 100 | 2.08 µM | 4.45 | 3.2 µM | > 100 µM
5 | OCCN1CCN(CCCN2c3ccccc3Sc3ccc(Cl)cc32)CC1 | 1.5 µM | 2.98 µM | 2.64 µM | 12 | 2.1 µM | 4.45 | 2.59 µM | 6.73 | 5.26 µM | 19.2 µM | 1.84 µM | 3.31 µM | 2.02 µM | 4.7 | 2.72 | 9.91 | 3.8 µM | 13.6 | 3.12 µM | 12.1 µM
6 | CCN(CCCN(C)C)Cc1cc(I)cc(C)c1O | 16.1 µM | 32.2 µM | 21.5 µM | 65.8 | 6.95 µM | 23.3 | 26.7 µM | > 100 | 38.8 µM | > 100 µM | 18 µM | 36.3 µM | 34.2 µM | > 100 | 27 | > 100 | 24.9 µM | 58.6 | 26.8 µM | 96.1 µM
7 | CN(c1ncccc1CNc1nc(Nc2ccc3c(c2)CC(=O)N3)ncc1C(F)(F)F)S(C)(=O)=O | 1.41 µM and 1.8 µM | 7.28 µM and 9.71 µM | 2.83 µM and 3 µM | > 35.9 | 2.97 µM and 3.45 µM | > 100 | 2.42 µM and 2.81 µM | > 26.9 | 2.38 µM and 2.25 µM | 7.97 µM and > 10 µM | 2.07 µM and 2.92 µM | 6.58 µM and > 10 µM | 2.41 µM and 3.38 µM | > 64.6 | 13 | > 85.8 | 2.72 µM and 3.31 µM | > 100 | 2.22 µM and 2.7 µM | 60.3 µM and > 10 µM
8 | O=c1[nH]c2ccccc2c2ccccc12 | > 100 µM | > 100 µM | > 100 µM | > 100 | > 100 µM | > 100 | > 100 µM | > 100 | > 100 µM | > 100 µM | > 100 µM | > 100 µM | > 100 µM | > 100 | > 100 | > 100 | > 100 µM | > 100 | > 100 µM | > 100 µM
9 | Cc1cc2nc3c4cc(O)ccc4n(CCN(C)C)c3nc2cc1C | 1.71 µM | 4.71 µM | 0.578 µM | 2.3 | 0.368 µM | > 100 | 1.77 µM | 8.19 | 1.18 µM | 5.45 µM | 1.56 µM | 3.16 µM | 0.494 µM | 4.73 | 0.499 | 4.2 | 0.408 µM | 10.3 | 0.953 µM | 4.46 µM
10 | COc1ccc(/C=C/C(=O)c2cc(OC)c(OC)c(OC)c2)cc1OCC(=O)Nc1nc2ccc(OC(F)(F)F)cc2s1 | 6.18 µM | 25.1 µM | 3.14 µM | 7.82 | 0.438 µM | 10.2 | 1.52 µM | 3.14 | 3.35 µM | 32.1 µM | 3.31 µM | 25.9 µM | 1.54 µM | 3.89 | 0.492 | 2.31 | 1.62 µM | 3.85 | 4.76 µM | 31.2 µM
11 | C=C1CC[C@@H]2[C@](C)(COC(C)=O)[C@H](OC(C)=O)CC[C@@]2(C)[C@@H]1CC(Nc1ccc(S(=O)(=O)NC(C)=O)cc1)C1=CCOC1=O (stereo not given in full) | 7.51 µM | 17.3 µM | 6.56 µM | 16.8 | 2.58 µM | 17.6 | 1.49 µM | 3.02 | 1.92 µM | 4.62 µM | 3.69 µM | 13.2 µM | 2.25 µM | 8.42 | 2.51 | 9.14 | 7.54 µM | 16.5 | 4.82 µM | 15.4 µM
12 | CC(=O)O[C@H]1C(=O)[C@@]2(C)C(C(OC(=O)c3ccccc3)[C@]3(O)C[C@H](OC(=O)C(OC(=O)CCCC(=O)NCCCN(C)C)C(NC(=O)c4ccccc4)c4ccccc4)C(C)=C1C3(C)C)C1(OC(C)=O)COC1C[C@@H]2O (stereo not given in full) |  | 0.0309 µM |  | 43 |  | 45.4 |  | < 0.01 |  | 39.1 µM |  | 55.5 µM |  | 15.3 |  | 70.7 |  | > 100 |  | 13.1 µM
